According to PMC9680484, “Synthesis, Biophysical Interaction of DNA/BSA, Equilibrium and Stopped-Flow Kinetic Studies, and Biological Evaluation of bis(2-Picolyl)amine-Based Nickel(II) Complex” (Biomimetics, 2022):
“And” between values parts separate entries of the source, which are not always exact repeats. Equal values may be shown once. Read-outs that look alike come from different tables or passages of the source.

Assays:
BSA [1] = target: T1, BSA (Bos taurus, UniProt P02769); assay: BSA fluorescence quenching titration (Stern-Volmer / Scatchard); assay type: binding, bovine; conditions: for KSV: Stern-Volmer constant
Protocol: The excitation and emission wavelengths of BSA at 280 nm were monitored in protein binding studies using BSA ([…]) solution prepared in Tris-HCl buffer (pH 7.5), and the solution was stored in a dark place at 4 °C.
Interactions between the most common blood protein, serum albumin, and complexes have sparked a lot of interest recently because of their structural similarity to human serum albumin. To better understand the mechanism of interaction between BPA and its nickel(II) complex NiBPA with BSA, fluorescence quenching studies were carried out. BSA’s fluorescence is due to intrinsic protein characteristics, such as the presence of tryptophan and tyrosine residues. Variations in the emission spectra caused by protein conformational changes, subunit interaction, substrate binding, or denaturation are largely attributed to the tryptophan residue. As a result, BSA fluorescence behavior can provide valuable insight into protein structure, dynamics, and folding. Fluorescence titration experiments were performed at room temperature with BSA and different concentrations of BPA and NiBPA in the range 200–600 nm (λex. 280 nm). A slight red shift (40 percent, BPA; 65 percent, NiBPA; Figure 3) reduced the intensity of BSA fluorescence at 343 nm. The presence of the protein’s active site in a hydrophobic environment causes the redshift. […] The quenching mechanism can be set to either static or dynamic operation. Dynamic quenching occurs when the fluorophore and the quencher come into contact during the excited state’s transient existence, whereas static quenching is caused by the formation of a complex between the quencher and the fluorophore in the ground state. BSA (fluorophore) has a UV-vis absorption spectrum that can be used to investigate the type of quenching quickly and easily. […] The binding constants for BPA and NiBPA were calculated using Equation (1) and found to be 0.4 × 10^4 M^−1 and 0.82 × 10^4 M^−1, respectively (Table 1). […] Furthermore, the findings are in line with previous research on related compounds.
The Kq value is much higher than the 2 × 10^10 M^−1s^−1 maximum scatters collision quenching constant of quenchers with BSA (Kq = Ksv/τ0), where KSV is the Stern–Volmer constant and τ0 is the average lifetime of the BSA in the absence of the quencher (τ0 = 10 ns). This supports the idea of a static quenching mechanism. […] It is second order in [Q] and thus leads to upward curvy plots of I0/I versus [Q] at higher [Q].
The quenching constant (Kq) was calculated using the Stern–Volmer and Scatchard equation and plotted as I0/I vs. [Q] to better understand the quenching process (Figure 3). In addition, Scatchard Equation (2) was used to calculate the equilibrium binding constant:log[(I0 − I)/I] = log Kbin + n log [Q](2) where Kbin is the compound’s BSA binding constant and n is the number of binding sites. From the log (I0 − I)/I vs. log [Q] plot (Figure 5), the binding constant (Kbin) and the number of binding sites (n) have been calculated (Table 1). The estimated value of n (∼1) for BPA and NiBPA strongly supported the existence of a single binding site in BSA.

BSA [2] = target: T1, BSA; assay: BSA UV-vis absorption titration (Benesi-Hildebrand binding constant); parameters: species or system bovine; conditions: BSA UV absorption
Protocol: Interactions between the most common blood protein, serum albumin, and complexes have sparked a lot of interest recently because of their structural similarity to human serum albumin. To better understand the mechanism of interaction between BPA and its nickel(II) complex NiBPA with BSA, fluorescence quenching studies were carried out. BSA’s fluorescence is due to intrinsic protein characteristics, such as the presence of tryptophan and tyrosine residues. Variations in the emission spectra caused by protein conformational changes, subunit interaction, substrate binding, or denaturation are largely attributed to the tryptophan residue. As a result, BSA fluorescence behavior can provide valuable insight into protein structure, dynamics, and folding. Fluorescence titration experiments were performed at room temperature with BSA and different concentrations of BPA and NiBPA in the range 200–600 nm (λex. 280 nm). A slight red shift (40 percent, BPA; 65 percent, NiBPA; Figure 3) reduced the intensity of BSA fluorescence at 343 nm. The presence of the protein’s active site in a hydrophobic environment causes the redshift. […] The quenching mechanism can be set to either static or dynamic operation. […] The binding constants for BPA and NiBPA were calculated using Equation (1) and found to be 0.4 × 10^4 M^−1 and 0.82 × 10^4 M^−1, respectively (Table 1). […]

ct-DNA [3] = assay: ct-DNA electronic absorption titration; assay type: binding; conditions: phosphate buffer pH 7.2
Protocol: Electronic absorption measurements were performed with a constant concentration of ctDNA and increasing concentrations of BPA and NiBPA (Na-phosphate buffer solution, pH 7.2). […] Intrinsic fluorescence was measured with the ct-DNA solution at the excitation wavelength (ex, 330), and emission spectra were recorded at 550–700 nm after aliquot addition of BPA and NiBPA.
Absorption titration information was depicted in Figure 6 to understand the mode of interaction of complexes with ct-DNA. Increased addition of a solution of BPA to a solution of ct-DNA causes hyperchromic for the band at 264 nm with a blue shift of 5 nm (259 nm), as shown in the absorption titration spectrum (Figure 6). The band at 278 nm, on the other hand, was hypochromic with a small blue shift of 2 nm (276 nm). The presence of […] in the medium was indicated by the isosbestic point in the titration curve at 274 nm. […] The hydrogen bonds formed with the –OH and SH groups of BPA and NiBPA are caused by the presence of many accessible hydrogen binding sites in the DNA major and minor grooves. The binding constants for BPA (0.16 × 10^5 M^−1) and NiBPA (0.52 × 10^5 M^−1) are similar to those of well-known groove binding rather than classical intercalation, implying that NiBPA interacts with ct-DNA much more strongly than BPA under investigation.

BSA [4] = target: T1, BSA; assay: Stopped-flow kinetics of BSA binding; parameters: species or system bovine; conditions: BSA
Protocol: (§1) The kinetics of protein and DNA binding was measured using an Applied KinetAsyst SF-61DX2 stopped-flow instrument. At 25 °C, equal volumes of compounds against protein and DNA solutions were rapidly mixed in the stopped-flow instrument. The binding reactions were studied using a 10-fold excess of the ligand BPA and NiBPA under pseudo-first-order conditions. For each experimental condition, all recorded rate constants were taken into account, from which the mean values of at least three independent kinetic runs were calculated.
(§2) Because many medicines with lower cellular toxicity have a slow DNA dissociation rate, several factors, such as the strength of binding and the drug’s affinity for DNA, as well as the kinetic stability of DNA-drug adducts, may contribute to antitumor effectiveness. The stopped-flow technique was used to study in-vitro protein/DNA binding to BPA and propose a mechanism in order to obtain such information. The kinetic traces were recorded at 265 nm within 100 s (BPA) and 5 s (NiBPA), respectively, to capture the interaction process with BSA. […] In the case of ct-DNA interaction, the kinetic traces were recorded at 290 nm, and both BPA and NiBPA followed a similar pattern since kinetic traces for BPA and NiBPA were collected within 100 s, covering the entire interaction process. […] Over the concentration range of BPA and NiBPA, the study of kinetic traces performed under pseudo-first-order conditions may be fitted to two kinetic phases (Figure 7) evaluated using the following Equation (3):(3) A=a1e^−kobs1t1+a2e^−kobs2t2+A0
(§3) The interaction process involves at least two steps, and the stopped-flow records the two kinetic phases as a fast binding (rate constant kobs1) followed by a slow first-order isomerization process (rate constant kobs2). […] Both kon and koff were used to calculate the equilibrium association constants Kaff [kon/koff M^−1] and the equilibrium dissociation constants Kd [koff/kon M].
The difference between the free energy, G, of BSA molecules alone in the solution and when bound together is related to the equilibrium dissociation constant, Kd1. Equation (4) gives the binding free energy change Gbind. (4) ΔGbind=RT·ln(Kd)

ct-DNA [5] = assay: Stopped-flow kinetics of ct-DNA binding
Protocol: as §1, §2
as §3, with “M]. […]” for “M].”

[6] = system: human liver cancer (HepG2) cell lines; assay: MTT cytotoxicity assay, liver cancer cells; assay type: cell-based; conditions: HepG2, MTT, 24 h
Protocol: Methyl thiazolyl tetrazolium (MTT) colorimetry [47] was used to assess the cytotoxicity of BPA and one for human liver cancer (HepG2) cell lines. MTT can be converted into formazan by living cells with an active metabolism, but this ability is lost in dying cells. Therefore, in this study, the MTT assay was used to determine how many viable cells there were. Before the investigated compounds were added, cells were cultured in 96-well flat-bottomed microtiter plates at a density of 1 × 10^4 cells/well (100 l/well) for 70 to 80 percent confluent cultures, and the cultures were then incubated at 37 °C and 5 percent CO2 for 24 h. The compounds were used in a range of concentrations (31.2, 62.5, 125.0, 250.0, 500.0, and 1000.0 g/mL), and the cells were cultured for 24 h. Then, 10 µl of the 12 mM MTT stock solution (5 mg/mL MTT in sterile PBS) was added to each well at the conclusion of the incubation period. After that, the plate was incubated at 37 °C for 4 h. […] On an ELISA reader, the absorbance at 570 nm was read (StatFax-2100, Awareness Technology, Inc., USA). The percentage of cells inhibited was calculated using: % CellInhibition=100−T−T0/C−T0 where T is the optical density of the test sample, To is the optical density at time zero, and C is the optical density of the control.

[7] = MTT cytotoxicity assay, normal cells; assay type: cell-based; conditions: normal liver (Wi38) cells, MTT, 24 h
S. aureus = assay: Antibacterial MIC/MBC, S. aureus; assay type: cell-based; conditions: Gram-positive
Protocol: (§4) Several studies have shown that organic compound coordination with a metallic element results in significant changes in the biological activity of both the organic ligand and the metal. As a result, BPA and its nickel complex NiBPA were tested in vitro for antibacterial activity against Gram-positive (S. aureus and S epidermidis) and Gram-negative (P. mirabilis and E. coli) bacteria. Figure 10 depicts the antibacterial function of BPA and NiBPA as the diameter of the growth-inhibition region in millimeters. […] The MBC is identified by determining the lowest concentration of antibacterial agents that reduces the viability of the initial bacterial inoculum by 99.9%. The MIC or MBC strain was chosen based on the value agreed upon on two or more occasions. The antibiotic tobramycin (TOB) was used to control the situation. The inhibition zone, as well as the MIC and MBC data, leads to the following conclusions. […] This is explained by the metal ion’s polarity and cationic charge, as NiBPA has a cationic property with two positive charges. […] The interaction between Gram-negative bacteria and NiBPA was stronger than that of Gram-positive bacteria due to the higher negative charge on the cell surface, despite the presence of an outer membrane in Gram-negative bacteria (see Figure 11).

E. faecalis = assay: Antibacterial MIC/MBC, E. faecalis; assay type: cell-based; parameters: MIC: unit not given here; conditions: Gram-positive
P. aeruginosa = assay: Antibacterial MIC/MBC, P. aeruginosa; assay type: cell-based; parameters: MIC: unit not given here; conditions: Gram-negative
E. coli = assay: Antibacterial MIC/MBC, E. coli; assay type: cell-based; conditions: Gram-negative
Protocol: as §4

Q: With O.[Cl][Ni][Cl].c1ccc(CNCc2ccccn2)nc1 [NiBPA, [(BPA)NiCl2(H2O)]] as the compound, how does the Kbin (BSA [1]; BSA binding constant from Scatchard equation) read?
A: 0.90 10^4 M^−1

Q: What about the “n (number of binding sites)” value (BSA [1]; Scatchard plot log (I0 − I)/I vs. log [Q]) of the same compound?
A: 1.3

Q: What about the KSV (BSA [1]) of the same compound?
A: 7000 M⁻¹

Q: And the KSV (BSA [1]; BSA fluorescence, λex 280 nm, room temperature)?
A: 0.70 10^4 M^−1

Q: And the Kq (BSA [1]; quenching constant, Kq = Ksv/τ0, τ0 = 10 ns)?
A: 0.70 10^12 M^−1s^−1

Q: What about the “reduction of BSA fluorescence intensity at 343 nm” value (BSA [1]; λex 280 nm, room temperature) of the same compound?
A: 65%

Q: And the “binding constant (BSA)” value (BSA [2])?
A: 8200 M⁻¹

Q: What about the “binding constant (ct-DNA)” value (ct-DNA [3]) of the same compound?
A: 52000 M⁻¹

Q: And the “Ka1 (k1/k−1)” value (BSA [4]; 1st step, 25 °C)?
A: 7.3 M⁻¹

Q: What about the ΔG1 (BSA [4]; 1st step, ΔGbind = RT·ln(Kd)) of the same compound?
A: -1.22 kcal/mol

Q: What about the ΔG2 (BSA [4]; 2nd step) of the same compound?
A: −8.3 kJmol^−1

Q: What about the “k−2” value (BSA [4]; 2nd step, 25 °C) of the same compound?
A: 620 ± 6 10^−3s^−1

Q: And the “K2 (2nd step)” value (BSA [4]; 2nd step, 25 °C, irreversible step for BPA)?
A: 2.0 ± 0.2 M⁻¹ s⁻¹

Q: And the Ka2 (BSA [4]; 2nd step, 25 °C, listed as 1)?
A: 3.2 M⁻¹

Q: What about the “k1 (1st step, second-order association constant)” value (BSA [4]; 25 °C) of the same compound?
A: 53.6 ± 9.0 M⁻¹ s⁻¹

Q: And the “k−1 (1st step, first-order dissociation constant)” value (BSA [4]; 25 °C)?
A: 7.3 ± 0.3 s⁻¹

Q: And the “Ka (overall binding)” value (BSA [4]; overall)?
A: 30.3 M⁻¹

Q: And the “ΔG (overall reaction)” value (BSA [4]; overall)?
A: −8.4 kJmol^−1

Q: What about the Kd (BSA [4]; overall, read-out: Kd (overall binding)) of the same compound?
A: 34 mM

Q: What about the Kd (BSA [4]; overall, read-out: Kd (overall reaction)) of the same compound?
A: 32.3 mM

Q: And the “Ka1 (k1/k−1)” value (ct-DNA [5]; 1st step, 25 °C)?
A: 53.6 M⁻¹

Q: What about the Kd (ct-DNA [5]; 1st step, 25 °C, read-out: Kd1 (k−1/k1)) of the same compound?
A: 19 mM

Q: What about the “K2 (2nd step)” value (ct-DNA [5]; 2nd step, 25 °C) of the same compound?
A: 0.23 ± 0.01 M⁻¹ s⁻¹

Q: And the “Ka2 (k2/k−2)” value (ct-DNA [5]; 2nd step, 25 °C)?
A: 39 M⁻¹ and 39.0 M⁻¹

Q: What about the “k−2” value (ct-DNA [5]; 2nd step, 25 °C) of the same compound?
A: 5.9 ± 0.5 10^−3s^−1

Q: And the “k1 (1st step, second-order association constant)” value (ct-DNA [5]; 25 °C)?
A: 19.3 ± 2.3 M⁻¹ s⁻¹

Q: And the “k−1 (1st step, first-order dissociation constant)” value (ct-DNA [5]; 25 °C)?
A: 0.36 ± 0.1 s⁻¹

Q: What about the “Ka (overall binding)” value (ct-DNA [5]; overall) of the same compound?
A: 2077 M⁻¹

Q: What about the IC50 [6] of the same compound?
A: 75.0 ± 0.5 µg/mL

Q: What about the IC50 [7] of the same compound?
A: 120.0 ± 0.5 µg/mL

Q: And the MBC (S. aureus)?
A: 76.0 µg/mL

Q: And the MBC (E. faecalis)?
A: 80.0 µg/mL

Q: And the MIC (E. faecalis)?
A: 43.0

Q: And the MBC (P. aeruginosa)?
A: 70.0 µg/mL

Q: And the MIC (P. aeruginosa)?
A: 35.0

Q: And the MBC (E. coli)?
A: 63.0 µg/mL
